{"source": "patent US8318898B2", "about": "“Synthetic peptides for use as inhibitors of neurotransmitter secretion and as inducers of cellular relaxation” (Universite de Lausanne, priority 2005, dated 2012)", "key": {"PC12 cells [1]": {"tested_on": "PC12 cells", "assay": "Inhibition of [3H]norepinephrine neurosecretion by PC12 cells", "format": "cell-based, rat", "description": "Using the neurosecretion assay described above, peptides fused to the TAT-PTD (L-TAT) were tested for inhibition of neurotransmitters and compared to use of L-TAT alone (SEQ ID NO: 3). In vitro screening for synthetic peptides capable of efficiently and selectively blocking neurotransmitter release in the PC12 cell line grown under defined conditions was performed.\nPC12 cells were washed with DMEM-WM (Dulbecco's Modified Eagle Medium (GIBCO cat. no. 31968) completed with 25 units of penicillin and streptomycin each) and loaded for 1-2 h with [^3H] norepinephrine (NE; 0.5 μCi/ml) in DMEM-CM (DMEM-WM complemented with 6% horse serum and 6% fetal calf serum). Cells were washed for 1 h with DMEM-WM, and then washed 2 times at 5-minute intervals. Basal release was determined by a 15-minutes incubation with CaSB-glucose 5 mM K^+ (CaSB-glucose: 140 mM NaCl, 5 mM KCl, 2 mM CaCl2, 11 mM glucose, [pH 7.4]). The peptides were added to the cells at defined concentrations after loading with NE but before induction of secretion. Cells were depolarized with 85 mM K^+ (CaSB-glucose with Na^+ reduced accordingly) for 15 minutes to determine stimulated release. Superfusate (1 ml) was removed to tubes. Adherent cells were solubilized in CaSB-glucose-0.1% Triton (1 ml/well). The quantities of released and non-released radiolabeled neurotransmitter were determined by liquid scintillation counting of cleared superfusates and cell lysates, respectively. Total uptake was calculated by addition of released and retained radioactivity, and the percentage release was as calculated (released counts/total uptake counts)×100. Results were also expressed as percent inhibition of neurosecretion."}, "[2]": {"details": "10% concentration in oil/water emulsion, 30-day treatment; cited from earlier work"}, "Recombinant furin [3]": {"biological_target": "T1, Recombinant furin (Homo sapiens, UniProt P09958)", "T1 sequence (P09958 108-794)": "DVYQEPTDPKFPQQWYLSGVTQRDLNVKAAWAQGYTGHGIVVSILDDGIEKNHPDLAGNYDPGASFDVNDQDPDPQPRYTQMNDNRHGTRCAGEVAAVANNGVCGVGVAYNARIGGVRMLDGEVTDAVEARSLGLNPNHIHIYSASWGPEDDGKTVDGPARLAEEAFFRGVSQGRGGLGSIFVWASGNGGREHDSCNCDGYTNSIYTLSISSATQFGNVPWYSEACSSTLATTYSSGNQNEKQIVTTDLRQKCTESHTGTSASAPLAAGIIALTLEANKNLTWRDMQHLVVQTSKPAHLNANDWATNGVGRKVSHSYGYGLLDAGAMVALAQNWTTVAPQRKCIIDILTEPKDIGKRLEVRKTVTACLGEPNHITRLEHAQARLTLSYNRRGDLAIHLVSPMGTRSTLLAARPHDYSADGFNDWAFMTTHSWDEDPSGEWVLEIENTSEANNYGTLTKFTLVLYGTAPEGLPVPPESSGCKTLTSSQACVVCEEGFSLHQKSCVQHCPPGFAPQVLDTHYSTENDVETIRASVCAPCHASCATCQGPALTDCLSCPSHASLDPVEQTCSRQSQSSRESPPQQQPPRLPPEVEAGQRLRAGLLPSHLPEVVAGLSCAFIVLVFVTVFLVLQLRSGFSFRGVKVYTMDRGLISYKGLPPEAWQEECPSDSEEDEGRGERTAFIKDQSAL", "assay": "biochemical", "format": "biochemical", "description": "To determine if the peptides described herein have an effect on the activity of PC enzymes which are involved in a condition or disorder such as fibrosis, the effect of the peptides on furin activity in vitro was measured as percent inhibition of cleavage of the furin substrate fluorogenic t-butyloxycarbonyl (Boc)-RVRR-7-amino-4-methylcoumarin (MCA).\nAll in vitro enzyme studies were performed at room temperature in a final volume of 50-100 μl in 96-well flat-bottom black plates. The buffer consisted of 100 mM HEPES, 1 mM CaCl2, 0.5% TritonX-100, and 1 mM 2-β-mercaptoethanol pH 7.5. Assays were performed using Boc-RVRR-MCA as fluorogenic substrate at 100 μM. Recombinant furin (0.8 U of activity) was incubated with Boc-RVRR-MCA in the presence or absence of varying concentrations of synthetic peptides D-9Rac/am (SEQ ID NO. 15), L-Bel1 (SEQ ID NO. 3), or L-9K (SEQ ID NO. 6). One unit of activity is defined as the amount of furin that can release 1 μmol of MCA from the fluorogenic Boc-RVRR-MCA per min at 30° C. The release of highly fluorescent 7-amino 4-methyl coumarin (MCA) from the Boc-RVRR-MCA was monitored by a spectrofluorometer instrument at excitation and emission wavelengths of 370 nm/460 nm. […]"}, "PC-12 cells": {"tested_on": "PC-12 cells", "assay": "Actin cytoskeleton organization, phalloidin-TRITC staining", "format": "cell-based, rat", "details": "2 to 10 μM, 30 minutes, labeled or unlabeled", "description": "Slides with PC-12 cells were prepared as stated previously for localization studies. Briefly, cells were exposed to FITC-labeled or unlabeled peptides, at various concentrations, for 30 minutes, fixed and then permeabilized. Subsequently, F-actin was fluorescently labeled with phalloidin-Tetramethyl Rhodamine Iso-Thiocyanate (TRITC) (Sigma Aldrich) conjugate, diluted on saponin buffer (0.25 μg/ml), and nuclear staining with DAPI dihydrochloride (Sigma Aldrich) (0.02 μg/ml), at room temperature for maximum 30 minutes. Finally, slides were mounted and sealed, and stored at 4° C. protected from light. The effect of the peptides to actin polymerization was analyzed by confocal microscopy, as described before."}, "rat lung fibroblast (LF)": {"tested_on": "rat lung fibroblast (LF)", "assay": "Cell contraction/relaxation on wrinkling silicone substrate, live videomicroscopy", "format": "cell-based", "details": "10 μM and 50 μM", "description": "To study the effect(s) of the peptides on muscle cells, which associate with neurosecretory cells at neuromuscular junctions, peptides were cultured with rat lung fibroblast (LF) grown over wrinkling substrate (silicon) which can mimic the effects of contraction. These cells have a myofibroblastic phenotype, e.g., production of TGF-β, which make them suitable for cellular contraction/relaxation studies.\nWrinkling silicone substrates were prepared as essentially described previously (Harris, et al., Science. 208:177-179, 1980; Hinz, et al., Mol Biol Cell. 12:2730-41, 2001). Briefly, 50 μl of silicone (poly dimethyl siloxane; 30.000 centistokes, Dow Corning, Midland, Mich.) were deposited onto a 35 mm round glass coverslip at the bottom of a self-made observation chamber, which was centrifuged at 1.000 rpm for 2 minutes to spread the viscous fluid. The silicone surface was then crosslinked by passing it through a Bunsen flame; a flaming time of 1 second produced a surface stiffness that restricted wrinkle formation to fibroblasts with high contractile force (Hinz et al., supra). The polymerized silicone surface was finally coated with 10 μg/ml collagen type I (Sigma) for 2 hours at 37° C. Lung fibroblast cells were seeded at a density of 3.5×10^3 cells/cm^2 and cultured for 1-2 days before the experiment. […]"}, "PC12-ES cells": {"tested_on": "PC12-ES cells", "assay": "Evoked neurotransmitter secretion by undifferentiated PC12-ES cells, furin inhibitor and arginine rich peptides", "format": "cell-based, rat", "details": "for inhibition of evoked neurotransmitter secretion by PC12-ES cells: potassium 80 mM, 15 minutes"}, "PC12 cells [4]": {"tested_on": "PC12 cells", "format": "cell-based, rat", "description": "[…]. Very little toxicity was present at 24 hours, and cytotoxicity at 48 hours was only slightly greater than at 24 hours. Cytotoxicity generally dipped to approximately 90% live cells when peptides were administered at 500 μM."}, "furin": {"biological_target": "T2, furin (Rattus norvegicus, UniProt P23377)", "T2 construct": "Furin activity was constitutively detected in PC12-ES cells; endogenous in cells; host or cells: PC12-ES cells (lysate)", "T2 sequence (P23377 108-793)": "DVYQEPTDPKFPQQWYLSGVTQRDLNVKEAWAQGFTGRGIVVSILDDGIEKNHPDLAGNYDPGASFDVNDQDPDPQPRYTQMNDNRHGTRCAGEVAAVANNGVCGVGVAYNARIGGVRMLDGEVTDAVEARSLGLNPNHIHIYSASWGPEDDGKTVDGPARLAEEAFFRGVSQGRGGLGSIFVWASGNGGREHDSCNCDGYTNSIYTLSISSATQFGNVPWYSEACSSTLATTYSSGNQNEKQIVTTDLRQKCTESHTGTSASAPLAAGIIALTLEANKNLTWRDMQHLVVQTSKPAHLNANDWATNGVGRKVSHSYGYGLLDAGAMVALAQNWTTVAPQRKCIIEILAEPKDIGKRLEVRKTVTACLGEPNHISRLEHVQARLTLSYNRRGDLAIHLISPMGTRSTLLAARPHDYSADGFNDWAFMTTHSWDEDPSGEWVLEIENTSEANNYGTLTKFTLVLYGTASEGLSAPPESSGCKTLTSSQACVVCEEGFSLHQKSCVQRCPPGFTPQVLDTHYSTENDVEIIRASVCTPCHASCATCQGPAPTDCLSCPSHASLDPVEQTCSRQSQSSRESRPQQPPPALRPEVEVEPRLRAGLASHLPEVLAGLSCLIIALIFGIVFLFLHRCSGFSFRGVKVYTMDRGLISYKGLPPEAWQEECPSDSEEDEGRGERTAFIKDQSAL", "format": "biochemical", "details": "EDTA 50 mM, EGTA 50 mM, Dec-RVKR-CMK 50 μM", "description": "To monitor the intracellular furin activity, 80% confluent PC12-ES cells were washed twice with ice-cold phosphate-buffered saline (PBS1×) by centrifugation at 800×g for 5 minutes at 4° C., resuspended in 100 mM HEPES, 1 mM CaCl2, 0.5% TritonX-100, and 1 mM 2-β-mercaptoethanol, pH 7.5, sonicated 6 times at 4° C. for 10 seconds, and then centrifuged at 8000×g for 20 minutes at 4° C. The protein concentration in the samples was determined using a bicinchonic acid protein assay kit (Pierce Chemical Co.).\nIntracellular furin activity was measured with a furin-specific fluorogenic substrate, t-butyloxycarbonyl (Boc)-[…]-7-amino-4-methylcoumarin (MCA). Briefly, the cell lysate (20 μg-60 μg of protein) prepared as described above was incubated with 100 μM Boc-RVRR-MCA in a 96-well flat-bottom black plate for at least 6 hours at room temperature and fluorescence measured by excitation at 365 nm and emission at 450 nm."}, "Recombinant furin [5]": {"biological_target": "T1, Recombinant furin", "details": "CALBIOCHEM; cited from earlier work"}}, "note": "* marks the point of attachment. Decanoyl = CCCCCCCCCC(=O)*; CH2Cl = ClC*"}
{"substance": "Ac-Glu-Glu-Met-Gln-Arg-Arg-NH2 (Ac-EEMQRR-NH2) [L-Argireline]", "values": [{"measurement": "inhibition of secretion", "setting": "PC12 cells [1]; 50 μM (mixture: 50 μM each)", "result": "no inhibition"}, {"measurement": "reduced wrinkle depth", "setting": "[2]", "result": "up to 30%"}]}
{"substance": "9K-L: SEQ ID NO: 6 (GYGKKKKKKKKKG; Synthetic peptide 9K-L)", "values": [{"measurement": "inhibition of neurotransmitter-evoked secretion", "setting": "PC12 cells [1]; concentration not given, peptide alone", "result": "approximately 20%"}, {"measurement": "concentration for complete blockade of cleavage of Boc-RVRR-MCA by furin", "setting": "Recombinant furin [3]", "result": "> 3.5", "unit": "µM"}, {"measurement": "effect on actin content and organization", "setting": "PC-12 cells", "result": "No effect"}, {"measurement": "relaxing effect on lung myofibroblasts on silicon substrate", "setting": "rat lung fibroblast (LF)", "result": "not observed"}]}
{"substance": "Decanoyl-Arg-Val-Lys-Arg-CMK (Decanoyl-RVKR-CH2Cl) [FI-I, reference compound]", "values": [{"measurement": "dose dependence of inhibition of evoked secretion", "setting": "PC12-ES cells", "result": "dose dependent"}, {"measurement": "inhibition of evoked neurotransmitter secretion by PC12-ES cells", "setting": "PC12-ES cells; 10 μM", "result": 12.6, "unit": "%"}, {"measurement": "inhibition of evoked neurotransmitter secretion by PC12-ES cells", "setting": "PC12-ES cells; 100 μM", "result": 50, "unit": "%"}, {"measurement": "cytotoxicity (MTT)", "setting": "PC12 cells [4]", "result": "no marked cytotoxicity"}, {"measurement": "inhibition of in vitro furin activity (in words)", "setting": "Recombinant furin [3]; Boc-RVRR-MCA 100 μM as substrate", "result": "inhibited"}, {"measurement": "inhibition of intracellular furin activity (in words)", "setting": "furin", "result": "inhibited"}, {"measurement": "Ki", "setting": "Recombinant furin [5]", "result": 1, "unit": "nM"}]}
